Values after ≈ are worked out from the molar mass of the structure shown.
Assay: Solubility at pH 7 after 24 hrs by LC-MS/MS analysis
Type: physicochemical
Settings: buffer

solubility at 24 h	Compound
3 µM (≈ 1.05 µg/mL)	COc1ccccc1Nc1ncc2c(n1)-c1c(c(C(N)=O)nn1C)CC2
2 µM (≈ 0.733 µg/mL)	CSc1ccccc1Nc1ncc2c(n1)-c1c(c(C(N)=O)nn1C)CC2
4 µM (≈ 1.6 µg/mL)	Cn1nc(C(N)=O)c2c1-c1nc(Nc3ccccc3S(N)(=O)=O)ncc1CC2
< 1 µM	Cn1nc(C(N)=O)c2c1-c1nc(Nc3ccccc3Nc3ccccc3)ncc1CC2
< 1 µM	Cn1nc(C(N)=O)c2c1-c1nc(Nc3ccccc3Sc3ccccc3)ncc1CC2
23 µM (≈ 8.04 µg/mL)	CNc1ccccc1Nc1ncc2c(n1)-c1c(c(C(N)=O)nn1C)CC2
18 µM (≈ 8.29 µg/mL)	CC(=O)c1ccc(N2CCN(C)CC2)cc1Nc1ncc2c(n1)-c1c(c(C(N)=O)nn1C)CC2
> 225 µM	COc1cc(N2CCN(C)CC2)ccc1Nc1ncc2c(n1)-c1c(c(C(N)=O)nn1C)CC2
2 µM (≈ 0.725 µg/mL)	CC(C)c1ccccc1Nc1ncc2c(n1)-c1c(c(C(N)=O)nn1C)CC2
83 µM (≈ 38.2 µg/mL)	CC(=O)c1cc(N2CCN(C)CC2)ccc1Nc1ncc2c(n1)-c1c(c(C(N)=O)nn1C)CC2
< 1 µM	Cn1nc(C(N)=O)c2c1-c1nc(Nc3ccccc3Oc3ccccc3)ncc1CC2
4 µM (≈ 1.55 µg/mL)	Cn1nc(C(N)=O)c2c1-c1nc(Nc3ccccc3C(F)(F)F)ncc1CC2
16 µM (≈ 6.04 µg/mL)	CC(=O)Nc1ccccc1Nc1ncc2c(n1)-c1c(c(C(N)=O)nn1C)CC2
170 µM (≈ 78.3 µg/mL)	CC(=O)c1c(Nc2ncc3c(n2)-c2c(c(C(N)=O)nn2C)CC3)cccc1N1CCN(C)CC1
2 µM (≈ 0.725 µg/mL)	CC(=O)c1ccccc1Nc1ncc2c(n1)-c1c(c(C(N)=O)nn1C)CC2

Further lines, the compound ahead of its results:

Compound	solubility at 24 h
Cc1ccccc1Nc1ncc2c(n1)-c1c(c(C(N)=O)nn1C)CC2	3 µM (≈ 1 µg/mL)
COC(=O)c1ccccc1Nc1ncc2c(n1)-c1c(c(C(N)=O)nn1C)CC2	2 µM (≈ 0.757 µg/mL)
Cn1nc(C(N)=O)c2c1-c1nc(Nc3ccccc3Cc3ccccc3)ncc1CC2	< 1 µM
Cn1nc(C(N)=O)c2c1-c1nc(Nc3ccccc3C(N)=O)ncc1CC2	< 1 µM
Cn1nc(C(N)=O)c2c1-c1nc(Nc3ccccc3-c3ccccc3)ncc1CC2	< 1 µM
Cn1nc(C(N)=O)c2c1-c1nc(Nc3ccccc3C(=O)c3ccccc3)ncc1CC2	< 1 µM
Cn1nc(C(N)=O)c2c1-c1nc(Nc3ccccc3F)ncc1CC2	3 µM (≈ 1.02 µg/mL)
Cn1nc(C(N)=O)c2c1-c1nc(Nc3ccccc3N)ncc1CC2	190 µM (≈ 63.7 µg/mL)
Cn1nc(C(N)=O)c2c1-c1nc(Nc3ccccc3)ncc1CC2	3 µM (≈ 0.961 µg/mL)

Assay: Apparent permeability across human Caco-2 cell membrane at 10 uM after 120 mins by LC-MS/MS analysis
Type: ADME, cell-based
Settings: not given

Papp at 2 h, 10 µM	Compound
2.7 ×10⁻⁶ cm/s	Cn1nc(C(=O)O)c2c1-c1nc(Nc3ccccc3)ncc1CC2
58.3 ×10⁻⁶ cm/s	Cn1nc(C(N)=O)c2c1-c1nc(Nc3ccccc3)ncc1CC2
